Measurements reported in ChEMBL document CHEMBL1201862, “PubChem BioAssay data set” (2004).
The source made the active and inactive calls.

How the values were obtained:
[1] = target: Glucose-6-phosphate 1-dehydrogenase (Homo sapiens, UniProt P11413); assay: inhibition of Homo sapiens G6PD, dose series – biochemical, fluorescence, selectivity assay for P. falciparum G6PD inhibitor project, dose response (AID 504792); assay type: functional
[2] = target: T1, High affinity choline transporter 1 (Homo sapiens, UniProt Q9GZV3); assay: human choline transporter blockers, potency – cell-based, 5-point CRC, membrane potential dye, dose response (AID 504840); assay type: functional
T1 sequence (Q9GZV3 whole entry): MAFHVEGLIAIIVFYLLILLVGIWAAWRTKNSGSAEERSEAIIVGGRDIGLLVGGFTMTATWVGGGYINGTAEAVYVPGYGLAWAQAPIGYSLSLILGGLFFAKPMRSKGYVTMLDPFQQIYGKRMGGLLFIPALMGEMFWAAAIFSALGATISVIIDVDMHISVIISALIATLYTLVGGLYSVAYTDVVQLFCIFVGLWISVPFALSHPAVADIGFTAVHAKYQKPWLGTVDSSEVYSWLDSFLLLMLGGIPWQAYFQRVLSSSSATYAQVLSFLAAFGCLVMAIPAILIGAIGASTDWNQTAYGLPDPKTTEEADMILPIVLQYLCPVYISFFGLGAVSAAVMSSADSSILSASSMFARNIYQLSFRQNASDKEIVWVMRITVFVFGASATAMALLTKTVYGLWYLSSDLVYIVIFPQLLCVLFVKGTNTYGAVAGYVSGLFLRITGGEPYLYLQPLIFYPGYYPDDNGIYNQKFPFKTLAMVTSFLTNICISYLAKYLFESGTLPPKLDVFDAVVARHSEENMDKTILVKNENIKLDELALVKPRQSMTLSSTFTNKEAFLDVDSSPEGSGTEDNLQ

[3] = target: T2, Polyadenylate-binding protein 1 (Homo sapiens, UniProt P11940); assay: MLLE binding blockers, Cy5 peptide tracer – biochemical, fluorescence polarization, Cy5-PAM2 peptide, secondary, miRNA deadenylation inhibitor project, dose response (AID 602260); assay type: functional; settings: read-out: IC50_Mean
Nonstructural protein 1 = Nonstructural protein 1 (Influenza A virus, UniProt Q194T2); assay type: functional, Influenza A virus (A/California/07/2009(H1N1))
[4] = target: Induced myeloid leukemia cell differentiation protein Mcl-1 (Homo sapiens, UniProt Q07820); assay type: functional
[5] = target: T3, Apoptotic protease-activating factor 1 (Homo sapiens, UniProt O14727); assay type: functional
T3 sequence (O14727 whole entry): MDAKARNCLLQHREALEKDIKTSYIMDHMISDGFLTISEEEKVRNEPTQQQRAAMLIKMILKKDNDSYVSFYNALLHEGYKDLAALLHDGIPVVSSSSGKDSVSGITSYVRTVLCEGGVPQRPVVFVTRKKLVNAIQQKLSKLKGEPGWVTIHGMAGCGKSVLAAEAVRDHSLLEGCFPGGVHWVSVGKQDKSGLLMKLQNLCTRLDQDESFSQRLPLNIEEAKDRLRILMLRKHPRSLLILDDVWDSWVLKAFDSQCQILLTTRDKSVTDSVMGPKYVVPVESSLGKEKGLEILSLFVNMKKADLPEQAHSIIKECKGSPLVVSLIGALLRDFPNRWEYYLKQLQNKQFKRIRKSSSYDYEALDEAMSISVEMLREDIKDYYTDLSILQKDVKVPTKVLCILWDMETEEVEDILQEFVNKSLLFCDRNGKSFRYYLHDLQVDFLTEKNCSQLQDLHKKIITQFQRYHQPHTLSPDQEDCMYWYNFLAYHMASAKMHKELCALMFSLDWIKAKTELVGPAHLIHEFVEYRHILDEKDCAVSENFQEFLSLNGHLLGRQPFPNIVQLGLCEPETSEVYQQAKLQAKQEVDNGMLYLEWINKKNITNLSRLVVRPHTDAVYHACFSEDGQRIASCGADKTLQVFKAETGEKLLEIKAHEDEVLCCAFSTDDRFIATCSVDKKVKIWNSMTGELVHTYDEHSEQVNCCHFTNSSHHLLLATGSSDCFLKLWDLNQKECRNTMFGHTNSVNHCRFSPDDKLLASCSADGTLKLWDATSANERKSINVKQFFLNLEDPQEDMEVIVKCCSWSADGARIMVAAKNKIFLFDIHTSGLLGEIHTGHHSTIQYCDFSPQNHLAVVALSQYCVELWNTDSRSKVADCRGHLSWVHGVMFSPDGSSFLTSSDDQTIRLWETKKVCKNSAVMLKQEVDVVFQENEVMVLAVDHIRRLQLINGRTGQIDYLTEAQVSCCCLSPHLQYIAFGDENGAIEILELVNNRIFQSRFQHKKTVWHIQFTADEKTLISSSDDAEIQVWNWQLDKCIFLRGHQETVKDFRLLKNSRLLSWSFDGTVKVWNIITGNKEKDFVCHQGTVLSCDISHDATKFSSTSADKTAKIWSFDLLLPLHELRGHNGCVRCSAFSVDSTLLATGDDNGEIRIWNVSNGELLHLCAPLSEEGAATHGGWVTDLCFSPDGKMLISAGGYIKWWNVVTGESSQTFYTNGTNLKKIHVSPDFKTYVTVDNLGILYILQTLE

[6] = target: T4, Replicative DNA helicase DnaB (Mycobacterium tuberculosis, UniProt P9WMR3); assay: DnaB intein splicing inhibitors, dose response, biochemical, cell-free fluorescence (AID 449749); assay type: functional
T4 sequence (P9WMR3 whole entry): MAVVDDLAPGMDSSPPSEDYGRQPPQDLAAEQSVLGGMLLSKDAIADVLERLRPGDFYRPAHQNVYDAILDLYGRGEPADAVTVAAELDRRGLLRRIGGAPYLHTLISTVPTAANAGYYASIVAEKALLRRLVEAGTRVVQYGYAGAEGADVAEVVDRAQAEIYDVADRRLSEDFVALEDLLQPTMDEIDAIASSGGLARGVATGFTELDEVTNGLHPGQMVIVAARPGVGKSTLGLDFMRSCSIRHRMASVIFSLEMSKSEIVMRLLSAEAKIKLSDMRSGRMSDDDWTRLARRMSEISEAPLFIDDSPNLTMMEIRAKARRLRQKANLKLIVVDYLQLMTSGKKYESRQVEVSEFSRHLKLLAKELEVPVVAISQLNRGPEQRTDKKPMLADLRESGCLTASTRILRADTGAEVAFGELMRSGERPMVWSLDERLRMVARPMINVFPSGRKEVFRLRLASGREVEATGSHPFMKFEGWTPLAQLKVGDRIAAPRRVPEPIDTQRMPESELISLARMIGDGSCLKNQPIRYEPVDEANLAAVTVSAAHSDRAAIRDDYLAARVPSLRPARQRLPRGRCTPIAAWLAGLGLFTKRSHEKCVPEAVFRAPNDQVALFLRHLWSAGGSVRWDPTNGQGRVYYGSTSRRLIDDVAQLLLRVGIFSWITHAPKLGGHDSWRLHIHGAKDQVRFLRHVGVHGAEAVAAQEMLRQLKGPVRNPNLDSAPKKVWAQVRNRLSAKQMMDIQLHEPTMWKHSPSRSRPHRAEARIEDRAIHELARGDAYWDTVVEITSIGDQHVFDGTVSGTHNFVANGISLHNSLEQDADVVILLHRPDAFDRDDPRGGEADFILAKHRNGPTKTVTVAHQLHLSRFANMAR

[7] = target: T2, Polyadenylate-binding protein 1; assay: MLLE domain peptide-binding blockers, IC50 – biochemical, fluorescence polarization, FITC-PAM2 peptide, dose response (AID 602259); assay type: functional; settings: read-out: IC50_Mean
Protein RecA = target: T5, Protein RecA (Mycobacterium tuberculosis, UniProt P9WHJ3); assay: Fluorescence Cell-Free Homogeneous Dose Retest to Identify Inhibitors of RecA-Intein Splicing Activity. [Related pubchem assays (depositor defined):AID2097, AID2223, AID489010, AID492950]; assay type: functional
T5 sequence (P9WHJ3 whole entry): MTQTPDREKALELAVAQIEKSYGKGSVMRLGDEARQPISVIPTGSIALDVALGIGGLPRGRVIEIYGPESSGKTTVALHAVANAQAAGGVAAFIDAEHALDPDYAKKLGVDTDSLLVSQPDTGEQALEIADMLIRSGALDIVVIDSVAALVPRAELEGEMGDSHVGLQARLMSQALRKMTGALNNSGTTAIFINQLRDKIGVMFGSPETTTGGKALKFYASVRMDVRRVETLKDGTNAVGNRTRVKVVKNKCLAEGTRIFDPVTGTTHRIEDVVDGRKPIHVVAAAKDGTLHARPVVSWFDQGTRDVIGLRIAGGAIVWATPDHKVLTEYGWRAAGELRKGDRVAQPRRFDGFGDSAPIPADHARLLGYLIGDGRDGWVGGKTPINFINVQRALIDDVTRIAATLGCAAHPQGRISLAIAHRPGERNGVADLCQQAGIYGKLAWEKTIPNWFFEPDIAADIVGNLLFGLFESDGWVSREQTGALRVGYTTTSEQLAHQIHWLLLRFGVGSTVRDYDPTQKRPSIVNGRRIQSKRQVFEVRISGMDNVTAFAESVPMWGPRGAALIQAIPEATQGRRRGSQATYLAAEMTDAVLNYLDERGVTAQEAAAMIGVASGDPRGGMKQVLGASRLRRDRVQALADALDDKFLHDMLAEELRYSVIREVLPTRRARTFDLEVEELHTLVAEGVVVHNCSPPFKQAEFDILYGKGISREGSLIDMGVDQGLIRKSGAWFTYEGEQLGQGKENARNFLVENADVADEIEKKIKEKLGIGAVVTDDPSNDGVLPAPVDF

[8] = target: T6, Nuclear receptor subfamily 0 group B member 1 (Homo sapiens, UniProt P51843); assay: Luminescence-based cell-based high throughput dose response assay for inhibitors of the orphan nuclear receptor subfamily 0, group B, member 1 (DAX1; NR0B1). [Related pubchem assays (depositor defined):AID504766, AID504790]; assay type: functional
T6 sequence (P51843 whole entry): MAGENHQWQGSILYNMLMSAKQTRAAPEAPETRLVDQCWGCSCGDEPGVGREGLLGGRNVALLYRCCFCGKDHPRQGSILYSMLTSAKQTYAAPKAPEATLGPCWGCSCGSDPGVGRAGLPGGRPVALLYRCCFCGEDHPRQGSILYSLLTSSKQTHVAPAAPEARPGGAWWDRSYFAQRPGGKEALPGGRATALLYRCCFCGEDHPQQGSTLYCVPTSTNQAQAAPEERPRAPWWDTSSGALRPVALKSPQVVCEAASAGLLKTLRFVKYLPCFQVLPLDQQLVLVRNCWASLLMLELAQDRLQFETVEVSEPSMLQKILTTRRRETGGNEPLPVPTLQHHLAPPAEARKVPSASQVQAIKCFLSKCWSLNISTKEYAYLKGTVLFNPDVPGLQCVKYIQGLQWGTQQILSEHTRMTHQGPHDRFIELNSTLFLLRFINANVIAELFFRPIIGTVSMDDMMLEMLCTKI

HEK293 = assay: cells; assay type: functional, cell-based; settings: Homo sapiens
CHO = CHO cell viability loss, potency – luminescence, cytotoxicity control for TLR9-MyD88 binding inhibitor project, dose response (AID 588339); assay type: functional, cell-based, hamster; settings: Cricetulus griseus;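 note: CHO cells stably coexpressing TLR9 and MyD88 fusions from primary screen; compound exposure lasted 48 hours before viability readout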
[9] = target: T7, Aryl hydrocarbon receptor (Homo sapiens, UniProt P35869); settings: Potency;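 note: confirmatory quantitative high-throughput screen measuring activation of the AhR signaling pathway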
T7 sequence (P35869 whole entry): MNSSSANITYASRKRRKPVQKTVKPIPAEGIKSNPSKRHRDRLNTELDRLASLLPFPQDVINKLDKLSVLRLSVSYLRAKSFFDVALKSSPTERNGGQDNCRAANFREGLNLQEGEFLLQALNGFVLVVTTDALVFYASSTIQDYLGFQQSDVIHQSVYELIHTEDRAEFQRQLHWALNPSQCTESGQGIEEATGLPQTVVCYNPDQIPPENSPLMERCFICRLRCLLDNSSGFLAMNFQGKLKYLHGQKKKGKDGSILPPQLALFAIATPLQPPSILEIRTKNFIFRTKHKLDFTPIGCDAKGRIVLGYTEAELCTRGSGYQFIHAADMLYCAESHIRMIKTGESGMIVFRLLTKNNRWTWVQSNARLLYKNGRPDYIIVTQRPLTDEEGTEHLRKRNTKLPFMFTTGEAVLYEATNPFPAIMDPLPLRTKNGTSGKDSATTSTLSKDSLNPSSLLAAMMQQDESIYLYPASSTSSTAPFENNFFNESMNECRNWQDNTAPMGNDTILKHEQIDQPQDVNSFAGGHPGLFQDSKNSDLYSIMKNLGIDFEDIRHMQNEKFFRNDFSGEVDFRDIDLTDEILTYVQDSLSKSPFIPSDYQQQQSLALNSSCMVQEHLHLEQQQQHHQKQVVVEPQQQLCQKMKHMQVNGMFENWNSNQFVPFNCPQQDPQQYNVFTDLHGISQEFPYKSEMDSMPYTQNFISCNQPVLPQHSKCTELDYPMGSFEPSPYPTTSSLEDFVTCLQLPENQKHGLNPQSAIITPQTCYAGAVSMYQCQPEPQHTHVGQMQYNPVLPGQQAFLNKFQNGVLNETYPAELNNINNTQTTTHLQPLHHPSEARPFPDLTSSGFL

[10] = target: Voltage-gated inwardly rectifying potassium channel KCNH2 (Homo sapiens, UniProt Q12809); settings: Potency;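 note: confirmatory quantitative high-throughput screen measuring inhibition of hERG channel activity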
Voltage-gated inwardly rectifying potassium channel KCNH2, sequence (Q12809 whole entry): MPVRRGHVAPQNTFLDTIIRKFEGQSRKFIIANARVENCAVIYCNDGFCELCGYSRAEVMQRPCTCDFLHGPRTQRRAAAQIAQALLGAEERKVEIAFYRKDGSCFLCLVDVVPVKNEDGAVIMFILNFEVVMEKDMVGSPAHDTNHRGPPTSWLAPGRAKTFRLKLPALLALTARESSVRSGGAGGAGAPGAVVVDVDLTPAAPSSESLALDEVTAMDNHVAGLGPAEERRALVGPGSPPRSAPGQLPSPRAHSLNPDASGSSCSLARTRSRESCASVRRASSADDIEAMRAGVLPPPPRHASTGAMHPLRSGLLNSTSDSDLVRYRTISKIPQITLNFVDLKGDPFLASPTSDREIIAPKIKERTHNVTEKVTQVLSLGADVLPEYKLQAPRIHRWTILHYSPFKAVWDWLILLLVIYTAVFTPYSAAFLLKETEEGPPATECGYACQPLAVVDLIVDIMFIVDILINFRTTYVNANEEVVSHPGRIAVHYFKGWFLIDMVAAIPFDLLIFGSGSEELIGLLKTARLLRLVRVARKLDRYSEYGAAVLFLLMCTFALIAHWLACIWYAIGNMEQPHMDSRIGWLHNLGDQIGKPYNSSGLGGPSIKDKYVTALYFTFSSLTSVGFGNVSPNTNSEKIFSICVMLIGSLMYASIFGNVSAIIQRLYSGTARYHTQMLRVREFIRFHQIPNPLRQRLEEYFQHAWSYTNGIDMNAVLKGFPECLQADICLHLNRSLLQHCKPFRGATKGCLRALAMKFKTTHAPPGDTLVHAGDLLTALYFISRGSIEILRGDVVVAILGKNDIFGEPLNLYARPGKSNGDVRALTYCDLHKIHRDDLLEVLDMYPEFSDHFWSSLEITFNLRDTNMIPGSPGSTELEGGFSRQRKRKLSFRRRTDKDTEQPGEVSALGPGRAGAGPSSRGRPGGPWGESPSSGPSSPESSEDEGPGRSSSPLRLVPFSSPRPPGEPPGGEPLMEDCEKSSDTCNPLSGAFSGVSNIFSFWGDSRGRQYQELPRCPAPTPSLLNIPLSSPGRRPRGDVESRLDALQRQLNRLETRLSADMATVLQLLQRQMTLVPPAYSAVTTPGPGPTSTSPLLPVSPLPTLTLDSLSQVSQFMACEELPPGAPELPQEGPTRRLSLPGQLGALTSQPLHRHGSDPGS

T2 sequence (P11940 whole entry): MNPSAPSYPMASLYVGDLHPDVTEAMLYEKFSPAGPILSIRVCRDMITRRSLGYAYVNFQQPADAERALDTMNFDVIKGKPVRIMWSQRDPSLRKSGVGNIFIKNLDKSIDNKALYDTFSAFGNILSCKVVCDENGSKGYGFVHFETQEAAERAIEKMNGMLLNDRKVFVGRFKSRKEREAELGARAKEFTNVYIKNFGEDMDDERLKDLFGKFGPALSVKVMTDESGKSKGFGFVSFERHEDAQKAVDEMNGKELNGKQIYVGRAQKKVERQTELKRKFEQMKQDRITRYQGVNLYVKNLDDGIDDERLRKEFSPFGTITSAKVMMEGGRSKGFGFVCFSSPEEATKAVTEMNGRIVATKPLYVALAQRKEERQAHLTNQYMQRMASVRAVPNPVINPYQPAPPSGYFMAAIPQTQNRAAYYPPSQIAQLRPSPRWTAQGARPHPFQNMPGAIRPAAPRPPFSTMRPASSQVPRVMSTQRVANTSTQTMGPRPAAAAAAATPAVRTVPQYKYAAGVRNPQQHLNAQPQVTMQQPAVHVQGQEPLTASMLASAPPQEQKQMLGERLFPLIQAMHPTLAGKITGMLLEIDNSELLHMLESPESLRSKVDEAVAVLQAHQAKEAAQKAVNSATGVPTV
Glucose-6-phosphate 1-dehydrogenase, sequence (P11413 whole entry): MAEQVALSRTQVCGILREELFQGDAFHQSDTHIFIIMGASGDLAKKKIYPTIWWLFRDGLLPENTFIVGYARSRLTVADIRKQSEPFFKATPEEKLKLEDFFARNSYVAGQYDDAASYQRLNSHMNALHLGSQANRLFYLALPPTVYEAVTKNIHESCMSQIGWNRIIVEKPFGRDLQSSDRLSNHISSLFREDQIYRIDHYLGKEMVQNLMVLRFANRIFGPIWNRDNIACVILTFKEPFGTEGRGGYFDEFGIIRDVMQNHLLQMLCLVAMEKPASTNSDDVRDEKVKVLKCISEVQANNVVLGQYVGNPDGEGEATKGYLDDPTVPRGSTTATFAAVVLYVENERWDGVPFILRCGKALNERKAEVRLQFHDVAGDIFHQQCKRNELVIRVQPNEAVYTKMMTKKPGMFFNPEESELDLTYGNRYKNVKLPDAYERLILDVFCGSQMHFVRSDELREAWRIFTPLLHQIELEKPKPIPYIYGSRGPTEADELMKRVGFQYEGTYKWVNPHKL
Induced myeloid leukemia cell differentiation protein Mcl-1, sequence (Q07820 whole entry): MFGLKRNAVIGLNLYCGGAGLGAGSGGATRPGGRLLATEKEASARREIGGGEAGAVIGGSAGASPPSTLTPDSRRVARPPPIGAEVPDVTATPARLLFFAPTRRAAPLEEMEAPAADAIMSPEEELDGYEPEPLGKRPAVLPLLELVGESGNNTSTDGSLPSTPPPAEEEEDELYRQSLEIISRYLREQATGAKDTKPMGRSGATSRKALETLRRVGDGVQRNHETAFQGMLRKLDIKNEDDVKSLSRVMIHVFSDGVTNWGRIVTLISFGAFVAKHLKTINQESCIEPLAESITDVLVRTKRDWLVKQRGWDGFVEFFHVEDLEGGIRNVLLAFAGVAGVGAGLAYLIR
Nonstructural protein 1, sequence (Q194T2 whole entry): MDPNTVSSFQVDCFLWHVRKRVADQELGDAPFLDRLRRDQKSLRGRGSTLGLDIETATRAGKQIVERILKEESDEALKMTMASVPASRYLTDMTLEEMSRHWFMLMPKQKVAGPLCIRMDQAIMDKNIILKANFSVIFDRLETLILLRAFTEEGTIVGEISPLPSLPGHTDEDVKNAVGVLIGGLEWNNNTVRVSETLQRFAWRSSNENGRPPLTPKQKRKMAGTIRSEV

O=C1Nc2cc(C(=O)NCCCN3CCCC3)ccc2S/C1=C\c1ccccc1
IC50 [1]: > 80 µM (inactive)
IC50 [2]: 14.5 µM (active)

Cc1ccc(NC2=C(NC(=O)c3ccccc3)C(=O)c3ccccc3C2=O)cc1Cl
IC50 [1]: > 80 µM (inactive)
IC50 [3]: > 66 µM (inactive)
IC50 (Nonstructural protein 1): 17.5 µM (active)
IC50 [4]: 3.38 µM (active)
IC50 [5]: 17 µM (active)
AC50 [6]: 3 µM (active)
IC50 [7]: > 66 µM (inactive)
EC50 (Protein RecA): 2.52 µM (active)

Cc1cc(Cl)c2oc(C(=O)N(CCO)Cc3ccccc3)c(C)c2c1
IC50 [8]: > 67.5 µM (inactive)
IC50 (HEK293): > 67.5 µM (inactive)

CCOc1ccc(N(CC(=O)Nc2ccc(C)c(C)c2)S(C)(=O)=O)cc1
IC50 [8]: > 67.5 µM (inactive)
IC50 (HEK293): > 67.5 µM (inactive)

NNC(=O)c1oc2nc(-c3ccc(Cl)cc3)cc(-c3ccccc3)c2c1N
IC50 (CHO): > 49.7 µM (inactive)

Nc1ccc(/N=N\c2ccccc2)c(N)c1
AC50 [9]: 14.1 µM (inconclusive)
AC50 [10]: 50.1 µM (inconclusive)

CCOP(=S)(OCC)SCSC(C)(C)C [TERBUFOS]
AC50 [10]: 39.8 µM (inconclusive)
